Assay [1] has as its target T1, reticulon-4 (RTN4/Nogo) (Homo sapiens, UniProt Q9NQC3).
T1 sequence (Q9NQC3 1-373 isoform Q9NQC3-2): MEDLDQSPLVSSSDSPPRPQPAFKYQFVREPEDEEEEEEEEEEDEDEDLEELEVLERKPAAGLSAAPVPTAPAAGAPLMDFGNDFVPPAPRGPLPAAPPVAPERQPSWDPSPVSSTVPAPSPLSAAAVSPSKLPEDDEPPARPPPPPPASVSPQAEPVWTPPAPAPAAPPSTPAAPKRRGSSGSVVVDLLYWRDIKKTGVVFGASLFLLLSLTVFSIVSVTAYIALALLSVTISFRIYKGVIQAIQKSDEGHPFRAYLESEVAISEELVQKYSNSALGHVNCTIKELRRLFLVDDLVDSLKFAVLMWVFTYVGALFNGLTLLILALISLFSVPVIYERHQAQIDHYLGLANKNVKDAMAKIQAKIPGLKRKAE
As to the kind of experiment: microscale thermophoresis (MST); supported by competitive pull-down. Format: binding. Also noted: RTN4B isoform focused on; MST construct printed only as RTN4. Background: Microscale thermophoresis detects binding through changes in fluorescence in a small temperature gradient.

Assay [2] addresses T1, reticulon-4 (RTN4/Nogo). As to the kind of experiment: microscale thermophoresis (MST); HuProt human proteome microarray and competitive pull-down. Format: binding. The arrangement: RTN4B isoform predominantly captured in pull-down; MST construct printed only as RTN4.

With `COc1c(O)cc2oc3cc(O)c(CC=C(C)C)c(O)c3c(=O)c2c1CC=C(C)C` [α-MG, α-mangostin], the Kd (usually a measure of binding affinity in units of concentration) on reticulon-4 (RTN4/Nogo) [1] is 12.1 ± 1.28 nM. Compound biotin-α-MG returned a Kd on reticulon-4 (RTN4/Nogo) [2] of 39 ± 1.09 nM.

The record behind these values is paper PMC11786723, “Endoplasmic reticulum membrane remodeling by targeting reticulon-4 induces pyroptosis to facilitate antitumor immune” (Protein & Cell, 2024).
